Data reported in US6303596A, “Use of taurolidine for treatment of leukemias” (priority 2000, dated 2001).

System: GM5387 (fibroblasts)
Assay: trypan blue exclusion, GM5387
Assay type: cell-based, human
Conditions: GM5387, after taurolidine treatment
Procedure: FIGS. 11A and 11B depict cell viability and growth rates for GM5387 cell line following taurolidine treatment, in terms of % trypan blue negative cells and % cell number, respectively. Cells were treated with various concentrations of taurolidine for 4 hours in AIM-V+0.01% BCS. After aliquots were collected for LDH assay, the remainder of the culture was rinsed in HBSS and resuspended in RPMI+10% BCS without taurolidine. Counts of trypan blue-negative cells (FIG. 11A), and total cell number (FIG. 11B), were recorded daily thereafter (with the measurement at Day 1 being made immediately after the 4 hour taurolidine treatment). Conditions were: no treatment (open circles); 25 μg/ml taurolidine (closed circles); 50 μg/ml taurolidine (open squares); 100 μg/ml taurolidine (closed squares); and vehicle alone (closed triangles). Doubling times were determined under each condition, and expressed as a percentage of the rate of doubling of untreated cells. These values are located to the right of the growth curves in (FIG. 11B). […]
HL-60 cells treated with 50 μl taurolidine. In these samples, LDH present in the culture medium was 8.3±2.3% of that released by completely lysed cells, compared with 2.3±0.8% measured in control cultures. […] After 4 hour treatment, cells were rinsed and returned to growth medium and monitored for viability and growth over the following 3 days. […]

Structure (SMILES): O=S1(=O)CCN(CN2CCS(=O)(=O)NC2)CN1 [taurolidine, 4,4'-methylenebis(perhydro-1,2,4-thiadiazin 1,1-dioxide)]
- trypan blue staining during 4 day growth: did not demonstrate a significant increase in trypan blue staining
- trypan blue staining during 4 day growth (listed as Taurolidine): cells remained trypan blue negative
